Data on 17 compounds can be found in patent US20260053932A1, “COMPOUNDS AND METHODS FOR THE TARGETED DEGRADATION OF ANDROGEN RECEPTOR AND ASSOCIATED METHODS OF USE” (Arvinas Operations, Inc., priority 2020, published 2026).

Where only a bound is given, the exact number is not on record here.

The test system of the first assay is androgen receptor (AR) in LNCaP and/or VCaP cells. Description: Androgen Receptor ELISA assay (AR degradation). The class given is cell-based. Particulars: LNCaP and/or VCaP cells; 5 hours incubation; media with R1881; read-out: DC50 Code* (degradation of AR ELISA). The method in brief:
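VCaP cells grown ≥3 days, then treated 5 h with compound in media containing 1 nM R1881 (10× stock). Cells lysed and AR quantified by sandwich ELISA (mouse AR detection Ab, HRP anti-mouse, TMB). DC50 and Dmax derived from AR degradation.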
For the compound `COc1cc(O[C@H]2C[C@H](N(CC3CCN(c4ncc(C(=O)N[C@@H]5CC[C@@H](Oc6cc(C)c(C#N)c(C)c6)C5)cn4)CC3)C(C)C)C2)cc2c1C(=O)N(C1CCC(=O)NC1=O)C2=O` (stereo partly drawn) [Compound 8, N-((1R,3R)-3-(4-cyano-3,5-dimethylphenoxy)cyclopentyl)-2-(4-((((1r,3R)-3-((2-(2,6-dioxopiperidin-3-yl)-7-methoxy-1,3-dioxoisoindolin-5-yl)oxy)cyclobutyl) (isopropyl)amino)methyl)piperidin-1-yl)pyrimidine-5-carboxamide], the 50% degradation concentration (DC50) was greater than 100 nM.

Regarding `CC1(C)[C@H](NC(=O)c2ccn([C@H]3CC[C@H](CCCOc4ccc5c(c4)C(=O)N(C4CCC(=O)NC4=O)C5=O)CC3)n2)C(C)(C)[C@H]1Oc1ccc(C#N)c(Cl)c1` (stereo partly drawn) [Compound 72, N-((1r,3R)-3-(3-chloro-4-cyanophenoxy)-2,2,4,4-tetramethylcyclobutyl)-1-((1r,4R)-4-(3-((2-(2,6-dioxopiperidin-3-yl)-1,3-dioxoisoindolin-5-yl)oxy)propyl)cyclohexyl)-1H-pyrazole-3-carboxamide], the DC50 was greater than 100 nM.

Take `CCOc1cc(O[C@H]2CC[C@H](NC(=O)c3cnc(N4CCC(CN(C(C)C)[C@H]5C[C@H](Oc6ccc7c(c6)C(=O)N(C6CCC(=O)NC6=O)C7=O)C5)CC4)cn3)CC2)ccc1C#N` (some centres unmarked) [Compound 64, N-((1r,4r)-4-(4-cyano-3-ethoxyphenoxy)cyclohexyl)-5-(4-((((1r,3r)-3-((2-(2,6-dioxopiperidin-3-yl)-1,3-dioxoisoindolin-5-yl)oxy)cyclobutyl) (isopropyl)amino)methyl)piperidin-1-yl)pyrazine-2-carboxamide]: the DC50 is less than 1 nM.

Take `N#Cc1ccc(O[C@H]2CC[C@H](NC(=O)c3cnc(N4CCC(CN(CC5COC5)[C@H]5C[C@H](Oc6ccc7c(c6)CN(C6CCC(=O)NC6=O)C7=O)C5)CC4)cn3)CC2)cc1Cl` (some centres unmarked) [Compound 13, N-((1r,4r)-4-(3-chloro-4-cyanophenoxy)cyclohexyl)-5-(4-((((1r,3r)-3-((2-(2,6-dioxopiperidin-3-yl)-1-oxoisoindolin-5-yl)oxy)cyclobutyl) (oxetan-3-ylmethyl)amino)methyl)piperidin-1-yl)pyrazine-2-carboxamide]: the DC50 was less than 1 nM.

With `CC(C)N(CC1CCN(c2ncc(C(=O)N[C@H]3C(C)(C)[C@H](Oc4ccc(C#N)c(Cl)c4)C3(C)C)cn2)CC1)[C@H]1CC[C@H](Oc2ccc3c(c2)C(=O)N(C2CCC(=O)NC2=O)C3=O)CC1` (some centres unmarked) [Compound 26, N-((1r,3r)-3-(3-chloro-4-cyanophenoxy)-2,2,4,4-tetramethylcyclobutyl)-2-(4-((((1r,4r)-4-((2-(2,6-dioxopiperidin-3-yl)-1,3-dioxoisoindolin-5-yl)oxy)cyclohexyl) (isopropyl)amino)methyl)piperidin-1-yl)pyrimidine-5-carboxamide], the DC50 was less than 1 nM.

Turning to `COc1cc(O[C@H]2CC[C@H](NC(=O)c3cnc(N4CC5(CC(CN(C(C)C)[C@H]6C[C@H](Oc7ccc8c(c7)CN(C7CCC(=O)NC7=O)C8=O)C6)C5)C4)cn3)CC2)ccc1C#N` (some centres unmarked) [Compound 27, N-((1r,4r)-4-(4-cyano-3-methoxyphenoxy)cyclohexyl)-5-(6-((((1r,3r)-3-((2-(2,6-dioxopiperidin-3-yl)-1-oxoisoindolin-5-yl)oxy)cyclobutyl) (isopropyl)amino)methyl)-2-azaspiro[3.3]heptan-2-yl)pyrazine-2-carboxamide], the DC50 is less than 1 nM.

As to `COc1cc(O[C@H]2C[C@H](N(CC3CCN(c4cnc(C(=O)N[C@H]5CC[C@H](Oc6cc(C)c(C#N)c(C)c6)CC5)cn4)CC3)C(C)=O)C2)cc2c1C(=O)N(C1CCC(=O)NC1=O)C2=O` (some centres unmarked) [Compound 23, N-((1r,4r)-4-(4-cyano-3,5-dimethylphenoxy)cyclohexyl)-5-(4-((N-((1r,3r)-3-((2-(2,6-dioxopiperidin-3-yl)-7-methoxy-1,3-dioxoisoindolin-5-yl)oxy)cyclobutyl)acetamido)methyl)piperidin-1-yl)pyrazine-2-carboxamide], the DC50 is less than 1 nM.

As to `COc1cc(O[C@H]2CC[C@@H](NC(=O)c3cnc(N4CCC(CN(C(C)C)[C@H]5C[C@H](Oc6ccc7c(c6)C(=O)N(C6CCC(=O)NC6=O)C7=O)C5)CC4)cn3)C2)ccc1C#N` (stereo partly drawn) [Compound 6, N-((1R,3S)-3-(4-cyano-3-methoxyphenoxy)cyclopentyl)-5-(4-((((1r,3R)-3-((2-(2,6-dioxopiperidin-3-yl)-1,3-dioxoisoindolin-5-yl)oxy)cyclobutyl) (isopropyl)amino)methyl)piperidin-1-yl)pyrazine-2-carboxamide], the DC50 is greater than 100 nM.

Still in this assay, the particulars now being: degradation of AR ELISA in LNCaP and/or VCaP cells; Table 2C; read-out: DC50 Code*.
With `COc1cc(O[C@H]2C[C@H](N(C)CCOC3CCN(c4ccc(C(=O)N[C@H]5C(C)(C)[C@H](Oc6cc(C)c(C#N)c(C)c6)C5(C)C)cc4)CC3)C2)cc2c1C(=O)N(C1CCC(=O)NC1=O)C2=O` (some centres unmarked) [compound 164, N-((1r,3r)-3-(4-cyano-3,5-dimethylphenoxy)-2,2,4,4-tetramethylcyclobutyl)-4-(4-(2-(((1r,3r)-3-((2-(2,6-dioxopiperidin-3-yl)-7-methoxy-1,3-dioxoisoindolin-5-yl)oxy)cyclobutyl) (methyl)amino)ethoxy)piperidin-1-yl)benzamide], the DC50 was less than 1 nM.

With `CC1(C)[C@H](NC(=O)c2ccc(N3CCC(CN(CCN4CCOCC4)[C@H]4C[C@H](Oc5ccc6c(c5)C(=O)N(C5CCC(=O)NC5=O)C6=O)C4)CC3)cc2)C(C)(C)[C@H]1Oc1ccc(C#N)c(C#N)c1` (some centres unmarked) [compound 214, N-((1r,3r)-3-(3,4-dicyanophenoxy)-2,2,4,4-tetramethylcyclobutyl)-4-(4-((((1r,3r)-3-((2-(2,6-dioxopiperidin-3-yl)-1,3-dioxoisoindolin-5-yl)oxy)cyclobutyl)(2-morpholinoethyl)amino)methyl)piperidin-1-yl)benzamide], the DC50 was less than 1 nM.

Turning to `Cc1cc(O[C@H]2C(C)(C)[C@H](NC(=O)c3ccc(N4CCC(CN5CCOC[C@H]5CCOc5ccc6c(c5)C(=O)N(C5CCC(=O)NC5=O)C6=O)CC4)cc3)C2(C)C)cc(C)c1C#N` (stereo partly drawn) [compound 201, N-((1r,3R)-3-(4-cyano-3,5-dimethylphenoxy)-2,2,4,4-tetramethylcyclobutyl)-4-(4-(((3R)-3-(2-((2-(2,6-dioxopiperidin-3-yl)-1,3-dioxoisoindolin-5-yl)oxy)ethyl)morpholino)methyl)piperidin-1-yl)benzamide], the DC50 is less than 1 nM.

In the case of `Cc1cc(O[C@H]2C(C)(C)[C@H](NC(=O)c3cnc(N4CCC(CN(CCO)[C@H]5C[C@H](Oc6ccc7c(c6)C(=O)N(C6CCC(=O)NC6=O)C7=O)C5)CC4)cn3)C2(C)C)cc(C)c1C#N` (mixture of isomers) [compound 229, rac-N-((1r,3r)-3-(4-cyano-3,5-dimethylphenoxy)-2,2,4,4-tetramethylcyclobutyl)-5-(4-((((1r,3r)-3-((2-(2,6-dioxopiperidin-3-yl)-1,3-dioxoisoindolin-5-yl)oxy)cyclobutyl)(2-hydroxyethyl)amino)methyl)piperidin-1-yl)pyrazine-2-carboxamide], the DC50 was less than 1 nM.

As for `Cc1cc(O[C@H]2C(C)(C)[C@H](NC(=O)c3cnc(N4CCC(CN(C(C)C)[C@H]5C[C@H](Oc6cccc7c6CN(C6CCC(=O)NC6=O)C7=O)C5)CC4)cn3)C2(C)C)cc(C)c1C#N` (mixture of isomers) [compound 185, rac-N-((1r,3r)-3-(4-cyano-3,5-dimethylphenoxy)-2,2,4,4-tetramethylcyclobutyl)-5-(4-((((1r,3r)-3-((2-(2,6-dioxopiperidin-3-yl)-1-oxoisoindolin-4-yl)oxy)cyclobutyl) (isopropyl)amino)methyl)piperidin-1-yl)pyrazine-2-carboxamide], the DC50 was less than 1 nM.

Consider `Cc1cc(O[C@H]2C(C)(C)[C@H](NC(=O)c3ccc(N4CCC(CN(C(C)C)[C@H]5C[C@H](Oc6ccc7c(c6)C(=O)N(C6CCC(=O)NC6=O)C7=O)C5)CC4)cn3)C2(C)C)cc(C)c1C#N` (some centres unmarked) [compound 128, N-((1r,3r)-3-(4-cyano-3,5-dimethylphenoxy)-2,2,4,4-tetramethylcyclobutyl)-5-(4-((((1r,3r)-3-((2-(2,6-dioxopiperidin-3-yl)-1,3-dioxoisoindolin-5-yl)oxy)cyclobutyl) (isopropyl)amino)methyl)piperidin-1-yl)picolinamide], for which the DC50 lay within 1 to 10 nM.

On to `Cc1cc(O[C@H]2C(C)(C)[C@H](NC(=O)c3cnc(N4CCC(CN5CC(Oc6ccc7c(c6)C(=O)N(C6CCC(=O)NC6=O)C7=O)C5)CC4)cn3)C2(C)C)cc(C)c1C#N` (some centres unmarked) [compound 99, N-((1r,3r)-3-(4-cyano-3,5-dimethylphenoxy)-2,2,4,4-tetramethylcyclobutyl)-5-(4-((3-((2-(2,6-dioxopiperidin-3-yl)-1,3-dioxoisoindolin-5-yl)oxy)azetidin-1-yl)methyl)piperidin-1-yl)pyrazine-2-carboxamide], for which the DC50 was less than 1 nM.

`[2H]C([2H])([2H])Oc1cc(O[C@H]2C[C@H](N(CC3CCN(c4ccc(C(=O)N[C@H]5C(C)(C)[C@H](Oc6ccc(C#N)c(OC)c6)C5(C)C)cc4)CC3)C(C)C)C2)cc2c1C(=O)N(C1CCC(=O)NC1=O)C2=O` (mixture of isomers) [compound 159, rac-N-((1r,3r)-3-(4-cyano-3-methoxyphenoxy)-2,2,4,4-tetramethylcyclobutyl)-4-(4-((((1r,3r)-3-((2-(2,6-dioxopiperidin-3-yl)-7-(methoxy-d3)-1,3-dioxoisoindolin-5-yl)oxy)cyclobutyl) (isopropyl)amino)methyl)piperidin-1-yl)benzamide]: the DC50 was less than 1 nM.

In the case of `CCN(CC1CCN(c2cnc(C(=O)N[C@H]3C(C)(C)[C@H](Oc4ccc(C#N)c(OC)c4)C3(C)C)cn2)CC1)[C@H]1C[C@H](Oc2ccc3c(c2)C(=O)N(C2CCC(=O)NC2=O)C3=O)C1` (some centres unmarked) [compound 194, N-((1r,3r)-3-(4-cyano-3-methoxyphenoxy)-2,2,4,4-tetramethylcyclobutyl)-5-(4-((((1r,3r)-3-((2-(2,6-dioxopiperidin-3-yl)-1,3-dioxoisoindolin-5-yl)oxy)cyclobutyl)(ethyl)amino)methyl)piperidin-1-yl)pyrazine-2-carboxamide], the DC50 is less than 1 nM.
